How the values were obtained:
mesenchymal stem cells = test: Expression of osteoblast marker genes (iBSP, PTHR1, STMN2, OSTERIX) in mesenchymal stem cells by quantitative RT-PCR; format: cell-based, human; conditions: for osteoblast differentiation of mesenchymal stem cells: conclusion from increased expression of osteoblast marker genes
Protocol: The respective effects of miPEP 125a-1 and miPEP 145-2 on differentiation of mesenchymal stem cells were analyzed by measuring the expression of the iBSP, PTHR1, STMN2 and OSTERIX genes that correspond to markers of osteogenesis and of osteoblast differentiation (Chiellini et al., Biochem Biophys Res Commun, 374(1):64-8, 2008; Cordonnier et al., Tissue Eng, 17(3): 249-259, 2011).
The experiments were carried out with two fragments of 10 amino acids respectively corresponding to the N-terminal part of the miPEP 125a-1 (=miPEP//125a-1 fragment) and to the N-terminal part of the miPEP 145-2 (=fragment miPEP//145-2).
Mesenschymal stem cells from 4 different donors were cultured for 24 hours in PROLIF medium (αMEM+10% FCS) with or without miPEP//then for 3 days in DIF+BMP4 medium (αMEM+2% FCS+b-Glycerophosphate+Ascorbic acid+BMP4), DIF ΔBMP4 medium (αMEM+2% FCS+b-Glycerophosphate+Ascorbic acid) or PROLIF medium (αMEM+10% FCS), with or without miPEP//.
The expression of the iBSP, PTHR1, STMN2 and OSTERIX genes was then measured in mesenchymal stem cells cultured in the presence or absence of a miPEP*.
a. Composition of Culture Media • Proliferation medium (PROLIF): αMEM+10% FBS+1% P/S • Differentiation medium+BMP4 (DIF+BMP4): αMEM+2% FBS+1% P/S+βglycerophosphate (10 mM)+Ascorbic acid (50 μM)+BMP4 (50 ng/mL) • Differentiation medium without BMP4 (DIF ΔBMP4): αMEM+2% FBS+1% P/S+βglycerophosphate (10 mM)+Ascorbic acid (50 μM)
The miPEP//145-2 was synthesized by Smartbioscience and dissolved at 2 mM in water. The miPEP//125a-1 was synthesized by Smartbioscience and dissolved in water+0.1% ammonium.
The mesenchymal stem cells were seeded in 12-well plates at 70,000 cells/well in 1 mL of PROLIF medium. The cells were then incubated for 72 h at 37° C. in a humid atmosphere with 5% CO2.
After 72 hours of incubation, the cells were pre-treated with 100 μM of miPEP or “scramble” peptide diluted in PROLIF medium, and then incubated at 37° C. for 24 hours. In parallel, cells treated with PROLIF±water or water+0.1% ammonium medium were used as a negative control.
For 3 days, the cells were treated every 24 h with 100 μM of diluted miPEP either in DIF+BMP4 medium, or in DIF ΔBMP4 medium, or in PROLIF medium. Cells untreated or treated with water or water+0.1% ammonium were used as controls. The cells are incubated at 37° C.
After 3 days of treatment, the culture supernatants were removed, the cell mats were washed once with PBS, and then the plates were frozen at −80° C. until the total RNAs were extracted.
Total RNAs were extracted according to the supplier's recommendations with the miRNeasy microkit kit (Qiagen).
The RNAs were reverse transcribed with the High Capacity cDNA reverse transcription kit (Applied Biosystem). 600 ng of RNA were added to 2 μL of RT buffer (10×), 2 μL of Random primer (10×), 0.8 μL of dNTPs (25×), 0.5 μL of RNAse OUT (40 U/μL) and 1 μL of multiscribe reverse transcriptase (50 U/μL) in a total volume of 20 μL. The reverse transcription reaction was carried out at 25° C. for 10 min and then 42° C. for 2 h. The activity of the enzyme was stopped by incubating the mixture at 85° C. for 5 min.
The expression of osteoblastic transcription factors iBSP, PTHR1, STMN2 and OSTERIX was evaluated by quantitative RT-PCR with the SsoFast EvagGreen kit. For the RT-PCR reaction, 3 μL of […] diluted 1/8 were added to 1× of SsoFast EvaGreen, 10 μM of each primer and RNase free water in a final volume of 10 μL. The reaction was subjected to the following temperatures: 3 min pre-amplification at 95° C., 40 cycles of 10 sec at 95° C. and […] in a thermal cycler (CFX96 Real-time PCR detection system, Biorad). PPIA was used as a reference gene to normalize quantitative RT-PCR.
For all PCR reactions, two replicates were used for each biological sample.

Nude mice = test: In vivo bone formation by subcutaneous implantation of MSCs + HA/β-TCP biomaterial in Nude mice
Protocol: For D. and F. conditions, mice also received regular injections (once a week) of either miPEP//125a-1 (D) or scramble miPEP (F) during the study. After 4 weeks, the mice are euthanized and the grafts were then isolated, fixed, included in methacrylate, cut and treated for histology. The cuts were scanned (NDPview) and bone formation (dark grey) is evaluated (A to F) and is also quantified (G) using the Fiji image analysis software and the total area of new bone is reported to the total area of the cut
For G, the y-axis indicates the percentage of bone formation and the statistical analyzes were performed with the paired t-test (p-value: * p<0.05; ** p<0.01 and *** p<0.001).
All experiments on animals were done in accordance with directive 2010/63/EU and after validation of protocols by the Animal Ethics Committee (Toulouse, N: 86/809 EEC). A total of 6-8 mice was used per group. The cells cultured osteo-induced or not according to the methods described elsewhere (see Example 1), were then suspended for 1 to 2 h in the culture medium also containing granules of biomaterials in the ratio of 2×10^6 cells/50 mg of biomaterial. These biomaterials were biphasic inorganic calcium phosphate (BCP), composed of hydroxyapatite (HA) and beta-tricalcium phosphate (β-TCP) in a ratio of 20/80, ranging in size from 0.5 to 1 mm (sold by Biomatlante, Vigneux de Bretagne, France). The porosity of these biomaterials (% vol) was 75±5% of pores of which 70% (0 to 10 μm), 20% (10 to 100 μm) and 10% (100 to 300 μm). They were sterilized by autoclaving.
The biomaterial alone has been implanted as a negative control. Female Nude mice (RjOrl: NMRI-Foxnnul/Foxnlnu) (Laboratoires Janvier, Saint-Berthevin, France) are generally anesthetized by inhalationn of isoflurane. Two implants (cells+biomaterials) are subcutaneously placed in the back of the mice on each side of the spine. After 4 weeks, the treated animals are sacrificed. The implants are then removed and fixed in a buffered 4% formalin solution. Some groups of mice will also receive regular injections (once a week) during the study either of the miPEP//125a-1 (SEQ ID NO: 11 752) or the control miPEP (scramble ScmiPEP//125a, SEQ ID NO: 11 758).
These implants were then decalcified in a solution of 4.13% EDTA/0.2% PFA in PBS for 96 hours at 50° C. using an automatic microwave for demineralization (KOS Histostation, Milestone Med. Corp. USA). The samples were dehydrated in ethanol and then butanol baths in an automatic dehydration apparatus (MicromMicrotech, Lyon, France). The samples were then immersed in paraphine (Histowax, Histolab, Gottenburg, Sweden). Fine sections ([…]) were made using a microtome (Leica RM2255, Leica Biosystems, Nanterre, France). The sections were stained by the Masson trichrome technique and the collagen in light green.
The photos were obtained by a scan of each cut (NanoZoomer, Hamamatsu, Photonics, Hamamatsu City, Shizuoka, Japan) and observed virtually (NDP view, Hamamatsu). The histomorphometry of the images was done using the ImageJ software and the neoformed bone percentage was calculated by explant area. 3 to 4 sections per explant were analyzed and quantified.

miR16-1 = test: Accumulation of miR16-1 in mesenchymal stem cells by RT-qPCR; format: cell-based, human; conditions: 10 μM for 3 h, MSCs from three patients, normalized to PPIA; FIG. 16
Protocol: The mesenchymal stem cells were treated with 10 μM of miPEP//15a-16-1-TAT, treated with 10 μM of control peptide (ScmiPEP//21-1) or untreated (NT) for 3 hours. The amount of miR16-1 precursor in cells has been measured by quantitative RT-PCR. The measurement of the amount of miR16-1 precursor was normalized with respect to the PPIA household gene. Analyzes and statistics were performed with the Mann-Withney test (p-value: * p<0.05; ** p<0.01 and *** p<0.001).
The effect of miPEP 15a-16-1 on miR16-1 accumulation was analyzed in mesenchymal stem cells (MSCs). The experiments were carried out with a fragment of 10 amino acids respectively corresponding to the N-terminal portion of the miPEP 15a-16-1 (=fragment miPEP//15 a-16-1).
MSCs from three different patients were treated with 10 μM of miPEP//15a-16-1 fused to TAT peptide (miPEP//15a-16-1-TAT) for 3 h, then the amount of miR16-1 was measured by RT-qPCR.
Peptides were synthesized by Smartbioscience and dissolved at 2 mM in water.
The MSCs were seeded in wells of 12-well plates at 72,900 cells per well under 1 mL of PROLIF medium. The cells were then incubated for 72 h at 37° C. in a humid atmosphere with 5% CO2. […]
The amount of miRNAs precursors in cells treated or not treated with miPEP was evaluated by quantitative RT-PCR with the SsoFast EvagGreen kit. […] PPIA was used as a reference gene to normalize quantitative RT-PCR. […]

[1] = DIF ΔBMP4 medium, 100 μM miPEP, 4 days, FIGS. 7 and 9
[2] = DIF ΔBMP4 medium, 100 μM miPEP, 4 days, FIGS. 8 and 10
[3] = DIF+BMP4 medium, 100 μM miPEP, 4 days, FIGS. 4 and 6

Substance	expression of the STMN2 gene (mesenchymal stem cells; [1])	expression of the OSTERIX gene (mesenchymal stem cells; [2])	expression of the STMN2 gene (mesenchymal stem cells; [3])	expression of the STMN2 gene (mesenchymal stem cells; PROLIF medium, 100 μM miPEP, 4 days, FIG. 11)	osteoblast differentiation of mesenchymal stem cells (mesenchymal stem cells)	expression of the iBSP gene (mesenchymal stem cells; DIF+BMP4 medium, 100 μM miPEP, 4 days, FIG. 2)	expression of the PTHR1 gene (mesenchymal stem cells; DIF+BMP4 medium, 100 μM miPEP, 4 days, FIG. 3)	expression of the OSTERIX gene (mesenchymal stem cells; DIF+BMP4 medium, 100 μM miPEP, 4 days, FIG. 5)	bone formation, quantified neoformed bone (Nude mice; MSCs only pre-treated in vitro (C) versus untreated MSCs (B), p=0.0241, FIG. 17G)	bone formation, quantified neoformed bone (Nude mice; MSCs pre-treated in culture (C) versus MSCs pre-treated with scramble miPEP (E), p=0.0499, FIG. 17G)	bone formation, quantified neoformed bone (Nude mice; MSCs pre-treated in vitro and then in vivo (D) versus untreated MSCs (B), p=0.0203, FIG. 17G)	bone formation, qualitative (histology images) (Nude mice; MSCs pre-treated with miPEP (FIG. 17C-D) versus scramble miPEP (FIG. 17E-F), 4 weeks)	ability of human MSCs to form bone in vivo (Nude mice; MSCs previously treated in vitro)	effect of in vivo injection of the miPEP on the induction of bone formation (Nude mice; pre-treated MSCs plus weekly injection (D) versus MSCs only pre-treated (C), FIG. 17G)	amount of miR 16-1 (miR16-1)
MVGLNPPLWQ [miPEP//145-2, fragment of 10 amino acids corresponding to the N-terminal part of the miPEP 145-2]	increases	increases	increases	increases	promote osteoblast differentiation										
MSLCLSPSLT [miPEP//125a-1, fragment of 10 amino acids corresponding to the N-terminal part of the miPEP 125a-1]	increases	increases	increases		promote osteoblast differentiation	increases	increases	increases	significantly higher	significantly more bone formation	significantly higher	greater	increased	without consequence	
MFKHRFFYMH-YGRKKRRQRRR [miPEP//15a-16-1-TAT]															increase

Source: patent US11607443B2, “Therapeutic peptides” (UNIVERSITE TOULOUSE III-PAUL SABATIER, priority 2016, dated 2023)
